Measured values taken from PubChem BioAssay (NCI).
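GI50: concentration for 50% inhibition of growth. At the TGI there is no net growth.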

Key:
Assay in all cases: DTP human tumour cell line panel, 384-well format
COLO 205 colon = system: COLO 205 colon
TK-10 renal = system: TK-10 renal
PC-3 prostate = system: PC-3 prostate
MOLT-4 leukemia = system: MOLT-4 leukemia
SK-MEL-5 melanoma = system: SK-MEL-5 melanoma
786-0 renal = system: 786-0 renal
OVCAR-3 ovarian = system: OVCAR-3 ovarian
T-47D breast = system: T-47D breast
HS 578T breast = system: HS 578T breast
ACHN renal = system: ACHN renal
NCI-H522 lung = system: NCI-H522 lung
HT29 colon = system: HT29 colon
IGROV1 ovarian = system: IGROV1 ovarian
NCI-H460 NSCLC = system: NCI-H460 NSCLC
OVCAR-5 ovarian = system: OVCAR-5 ovarian
BT-549 breast = system: BT-549 breast
OVCAR-4 ovarian = system: OVCAR-4 ovarian
MDA-MB-435 melanoma = system: MDA-MB-435 melanoma
NCI-H226 lung = system: NCI-H226 lung
UACC-257 melanoma = system: UACC-257 melanoma
UACC-62 melanoma = system: UACC-62 melanoma
MDA-MB-468 breast = system: MDA-MB-468 breast
SR leukemia = system: SR leukemia
CAKI-1 renal = system: CAKI-1 renal
HOP-92 NSCLC = system: HOP-92 NSCLC
A498 renal = system: A498 renal
RPMI-8226 leukemia = system: RPMI-8226 leukemia
HL-60(TB) leukemia = system: HL-60(TB) leukemia

## C[C@]1(c2nc3c(C(N)=O)cccc3[nH]2)CCCN1
COLO 205 colon
  GI50: > 100 µM
  TGI: > 100 µM
TK-10 renal
  GI50: > 100 µM
  TGI: > 100 µM
PC-3 prostate
  GI50: > 100 µM
  TGI: > 100 µM
MOLT-4 leukemia
  GI50: 29.6 µM
  TGI: > 100 µM
SK-MEL-5 melanoma
  GI50: > 100 µM
  TGI: > 100 µM
786-0 renal
  GI50: > 100 µM
  TGI: > 100 µM
OVCAR-3 ovarian
  GI50: > 100 µM
  TGI: > 100 µM
T-47D breast
  GI50: > 100 µM
  TGI: > 100 µM
HS 578T breast
  GI50: > 100 µM
  TGI: > 100 µM
ACHN renal
  GI50: > 100 µM
  TGI: > 100 µM
NCI-H522 lung
  GI50: > 100 µM
  TGI: > 100 µM
HT29 colon
  GI50: > 100 µM
  TGI: > 100 µM
IGROV1 ovarian
  GI50: > 100 µM
  TGI: > 100 µM
NCI-H460 NSCLC
  GI50: 28.7 µM
  TGI: > 100 µM
OVCAR-5 ovarian
  GI50: 84.4 µM
  TGI: > 100 µM
BT-549 breast
  GI50: > 100 µM
  TGI: > 100 µM
OVCAR-4 ovarian
  GI50: > 100 µM
  TGI: > 100 µM
MDA-MB-435 melanoma
  GI50: > 100 µM
  TGI: > 100 µM
NCI-H226 lung
  GI50: 90.3 µM
  TGI: > 100 µM
UACC-257 melanoma
  GI50: > 100 µM
  TGI: > 100 µM
UACC-62 melanoma
  GI50: 95.6 µM
  TGI: > 100 µM
MDA-MB-468 breast
  GI50: 16.2 µM
  TGI: > 100 µM
SR leukemia
  GI50: 14.5 µM
  TGI: 28.3 µM
CAKI-1 renal
  GI50: > 100 µM
  TGI: > 100 µM
HOP-92 NSCLC
  GI50: > 100 µM
  TGI: > 100 µM
A498 renal
  GI50: > 100 µM
  TGI: > 100 µM
RPMI-8226 leukemia
  GI50: > 100 µM
  TGI: > 100 µM
HL-60(TB) leukemia
  GI50: > 100 µM
